These compounds were tested against T1, Isoform 2 of Nuclear receptor ROR-alpha (Alpha-2) (Homo sapiens, UniProt P35398) (assay: activators of RORA nuclear receptor, dose response, cell-based, CHO-K1, Gal4-RORA LBD, luciferase luminescence (AID 681)).
T1 sequence (P35398 whole entry): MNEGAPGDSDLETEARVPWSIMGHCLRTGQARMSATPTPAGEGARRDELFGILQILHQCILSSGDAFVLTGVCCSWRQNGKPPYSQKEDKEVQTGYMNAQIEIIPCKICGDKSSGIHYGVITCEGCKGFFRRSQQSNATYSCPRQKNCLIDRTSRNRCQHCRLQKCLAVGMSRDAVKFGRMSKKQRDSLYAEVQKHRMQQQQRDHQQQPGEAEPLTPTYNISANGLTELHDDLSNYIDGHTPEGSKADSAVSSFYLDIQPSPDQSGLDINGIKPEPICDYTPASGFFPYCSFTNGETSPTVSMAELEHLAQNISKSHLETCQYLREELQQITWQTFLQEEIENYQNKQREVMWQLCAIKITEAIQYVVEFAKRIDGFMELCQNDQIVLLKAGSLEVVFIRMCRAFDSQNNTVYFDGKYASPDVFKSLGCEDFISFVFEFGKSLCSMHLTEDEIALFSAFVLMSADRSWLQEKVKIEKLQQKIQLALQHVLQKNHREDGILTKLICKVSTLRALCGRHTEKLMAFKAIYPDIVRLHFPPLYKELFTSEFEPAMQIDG

Row | EC50 [nM] | SMILES
1 | 3480 | CC(C)CNS(=O)(=O)c1ccc(C(=O)Nc2ccc3c(c2)OCCO3)cc1 [MLS000032888]
2 | 491 | CCOc1ccc(C=CC(C)N=O)cc1 (centres undefined) [(Z)-4-(4-ethoxyphenyl)-3-buten-2-one oxime]
3 | 3630 | Oc1coc2ccc(OCc3ccc(F)cc3)cc12 [5-(4-fluorobenzyl)oxycoumaran-3-one]
4 | > 99000 | COc1ccc(C(O)P(=O)(O)CCc2ccccc2)cc1 (centres undefined) [MLS000038577]
5 | > 136 | CCOc1ccc2nc(NC(=O)c3cnccn3)sc2c1 [MLS000070707]
6 | 1530 | CC1=CCC(COC(=O)Nc2ccccc2)CC1 (centres undefined) [(4-methylcyclohex-3-en-1-yl)methyl N-phenylcarbamate]
7 | 1020 | O=C(Nc1ccc(N2CCCCC2)cc1)c1cncc(Br)c1 [5-bromanyl-N-(4-piperidin-1-ylphenyl)pyridine-3-carboxamide]
8 | > 99000 | CCCCOC(=O)C(C)Oc1ccc(=O)n(-c2ccccc2)n1 (centres undefined) [2-(6-keto-1-phenyl-pyridazin-3-yl)oxypropionic acid butyl ester]
9 | 1030 | O=C(NC1CCCC1)c1cc(-c2cccs2)on1 [MLS000087238]
10 | > 99000 | CCn1c(Cn2nnc(-c3ccccc3)n2)nnc1SCC(=O)Nc1ccc(C(C)=O)cc1 [MLS000068275]
11 | > 99000 | COc1ccc(CCC(=O)Nc2ccc3c(c2)OCCO3)cc1 [MLS000110197]
12 | > 3670 | Cc1ccc2nc(Nc3ccc4[nH]c(O)nc4c3)c(-n3nc(C)cc3C)nc2c1 [5-[[3-(3,5-dimethyl-1-pyrazolyl)-6-methyl-2-quinoxalinyl]amino]-1,3-dihydrobenzimidazol-2-one]
13 | 1920 | COc1ccc(Nc2oc(-c3ccccc3Cl)nc2C#N)cc1 [2-(2-chlorophenyl)-5-(4-methoxyanilino)-1,3-oxazole-4-carbonitrile]
14 | 3440 | COc1ccccc1-c1nc(-c2ccncc2)no1 [4-[5-(2-Methoxy-phenyl)-[1,2,4]oxadiazol-3-yl]-pyridine]
15 | 1350 | C=CCOc1ccc(C=CC(C)N=O)cc1 (centres undefined) [(E)-4-(4-allyloxyphenyl)but-3-en-2-one oxime]
16 | 317 | O=C(Nc1nnc(C23CC4CC(CC(C4)C2)C3)s1)c1ccco1 [N-[5-(1-adamantyl)-1,3,4-thiadiazol-2-yl]furan-2-carboxamide]
17 | 5110 | Cc1nc(N=CN(C)C)sc1C(=O)Nc1ccccc1 [SMR000107046]
18 | 536 | Cc1cc(NCCOCCO)n2ncc(-c3ccc(Cl)cc3)c2n1 [2-[2-[[3-(4-chlorophenyl)-5-methyl-7-pyrazolo[1,5-a]pyrimidinyl]amino]ethoxy]ethanol]
19 | > 3670 | CCOc1ccc2nc(N3CCC(C(=O)N4CCN(c5ccccn5)CC4)CC3)sc2c1 [MLS000119552]

From BindingDB's records for doi:10.7270/Q2RJ4GVG (The Scripps Research Institute Molecular Screening Center, 2007)
